IC50 and GI50 data for 22 molecules are collected here from patent US12686673B2 (Blueprint Medicines Corporation, priority 2020, dated 2026).

Holding throughout (format): cell-based
Assay [1] concerns A431 cells. Kind of assay: Cellular proliferation (Alamar Blue) assay, A431. For orientation: The colour change of resazurin is a common sign of viable cells or microbes.
For assay [2], the target named is HER2 (A775_G776insYVMA) expressing Ba/F3 stable cell line (Homo sapiens, UniProt P04626, DUP772-775, cells depend on it). Kind of assay: Cellular proliferation (Alamar Blue) assay, HER2 A775_G776insYVMA Ba/F3. To be noted: 72 hr, read-out: YVMA IC50. As for the experimental part: • 1. EGFR(D770_N771insSVD) expressing Ba/F3 stable cell line • 2. EGFR (A767_dupASV) expressing Ba/F3 stable cell line • 3. A431 cells • 4. EGFR (H773insNPH) expressing Ba/F3 stable cell line • 5. HER2 (A775_G776insYVMA) expressing Ba/F3 stable cell line Assay Procedure: • 1. Seed cells at 5000 for A431 and 15,000 cells for Ba/F3 in 100 μL/well in complete media (for A431: DMEM with […] and for Ba/F3 cells: RPMI with 10% FBS) in 96-well tissue culture plate. Leave outer wells without cells for background measurements. Incubate at 37 degree Celsius in […] humidified incubator for 16-18 hours. • 2. Add 0.025 ml of 5× concentration compound dilution or DMSO control. Final compound concentration range is 10-0.0005 μM prepared in 3-fold serial dilutions. Incubate for 72 hr at 37 degree Celsius in […] humidified incubator. • 3. Add 0.0125 ml Alamar Blue™ reagent to each well with multi-channel pipette and tap gently on each side of the plate to mix. Incubate for 3 hours at 37 degree Celsius in 5% CO2 humidified incubator. • 4. […] Data analysis was performed using XLfit 5.5.0.5.

In assay [3] the target is EGFR (A767_dupASV) expressing Ba/F3 stable cell line (Homo sapiens, UniProt P00533, DUP767-769, cells depend on it). Kind of assay: Cellular proliferation (Alamar Blue) assay, EGFR A767_dupASV Ba/F3. To be noted: 72 hr, read-out: A767 IC50. The procedure, abridged: (§1)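 Ba/F3 stable lines (15,000 cells/well, RPMI + 10% FBS) seeded 16–18 h, then treated 72 h at 37 °C with compound, final 10–0.0005 μM in 3-fold dilutions. Viability read by Alamar Blue after 3 h incubation.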

Assay [4] deals with EGFR(D770_N771insSVD) expressing Ba/F3 stable cell line (Homo sapiens, UniProt P00533, DUP768-770, cells depend on it). Kind of assay: Cellular proliferation (Alamar Blue) assay, EGFR D770_N771insSVD Ba/F3. The following applies: 72 hr, read-out: D770 IC50. The procedure, abridged: as §1
Setting [5] is: Homo sapiens, A-431; A431 cells, 72 hr, Alamar Blue; read-out: A431 IC50.
Setting [6] is: Homo sapiens, A-431; A431 cells, Alamar Blue, 72 hr; read-out: A431 IC50.

As a reminder, the IC50 is the concentration needed to halve the response being measured.

Each structure is given as a SMILES string. Where a name gives a salt, the structure may show the parent alone. Read-outs that look alike come from different tables or passages of the source.

Sequence of EGFR (A767_dupASV) expressing Ba/F3 stable cell line (P00533 with tags, fused parts or gaps DUP767-769): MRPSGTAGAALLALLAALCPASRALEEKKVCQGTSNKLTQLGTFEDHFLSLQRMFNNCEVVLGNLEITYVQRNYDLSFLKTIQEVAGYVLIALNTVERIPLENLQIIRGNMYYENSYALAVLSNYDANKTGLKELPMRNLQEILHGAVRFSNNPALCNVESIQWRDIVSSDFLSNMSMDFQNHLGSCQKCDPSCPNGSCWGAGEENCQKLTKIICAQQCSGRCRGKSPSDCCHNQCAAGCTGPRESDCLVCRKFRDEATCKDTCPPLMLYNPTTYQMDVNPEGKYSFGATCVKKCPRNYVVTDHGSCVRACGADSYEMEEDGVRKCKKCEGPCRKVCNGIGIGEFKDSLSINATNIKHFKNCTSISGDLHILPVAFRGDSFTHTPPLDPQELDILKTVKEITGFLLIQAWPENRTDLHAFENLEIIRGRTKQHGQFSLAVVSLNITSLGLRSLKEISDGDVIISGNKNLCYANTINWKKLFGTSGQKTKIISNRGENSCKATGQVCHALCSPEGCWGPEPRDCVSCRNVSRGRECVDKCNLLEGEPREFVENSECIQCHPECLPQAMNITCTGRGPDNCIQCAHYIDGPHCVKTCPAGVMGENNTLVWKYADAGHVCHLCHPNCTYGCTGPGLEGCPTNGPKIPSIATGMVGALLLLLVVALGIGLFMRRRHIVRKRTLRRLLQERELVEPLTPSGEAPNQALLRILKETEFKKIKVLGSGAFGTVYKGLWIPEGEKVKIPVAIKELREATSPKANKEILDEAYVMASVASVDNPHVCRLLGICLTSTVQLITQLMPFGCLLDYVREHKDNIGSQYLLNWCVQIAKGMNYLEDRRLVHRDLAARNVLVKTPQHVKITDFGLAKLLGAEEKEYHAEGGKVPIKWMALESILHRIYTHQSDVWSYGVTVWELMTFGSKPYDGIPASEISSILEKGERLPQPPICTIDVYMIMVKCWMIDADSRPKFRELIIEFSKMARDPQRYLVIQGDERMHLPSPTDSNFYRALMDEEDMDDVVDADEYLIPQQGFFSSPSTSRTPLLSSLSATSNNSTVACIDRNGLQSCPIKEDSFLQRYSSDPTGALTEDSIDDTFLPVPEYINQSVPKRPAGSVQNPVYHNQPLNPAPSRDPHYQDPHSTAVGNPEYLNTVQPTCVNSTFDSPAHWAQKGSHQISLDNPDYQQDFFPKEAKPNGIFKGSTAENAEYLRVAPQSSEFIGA
Sequence of EGFR(D770_N771insSVD) expressing Ba/F3 stable cell line (P00533 with tags, fused parts or gaps DUP768-770): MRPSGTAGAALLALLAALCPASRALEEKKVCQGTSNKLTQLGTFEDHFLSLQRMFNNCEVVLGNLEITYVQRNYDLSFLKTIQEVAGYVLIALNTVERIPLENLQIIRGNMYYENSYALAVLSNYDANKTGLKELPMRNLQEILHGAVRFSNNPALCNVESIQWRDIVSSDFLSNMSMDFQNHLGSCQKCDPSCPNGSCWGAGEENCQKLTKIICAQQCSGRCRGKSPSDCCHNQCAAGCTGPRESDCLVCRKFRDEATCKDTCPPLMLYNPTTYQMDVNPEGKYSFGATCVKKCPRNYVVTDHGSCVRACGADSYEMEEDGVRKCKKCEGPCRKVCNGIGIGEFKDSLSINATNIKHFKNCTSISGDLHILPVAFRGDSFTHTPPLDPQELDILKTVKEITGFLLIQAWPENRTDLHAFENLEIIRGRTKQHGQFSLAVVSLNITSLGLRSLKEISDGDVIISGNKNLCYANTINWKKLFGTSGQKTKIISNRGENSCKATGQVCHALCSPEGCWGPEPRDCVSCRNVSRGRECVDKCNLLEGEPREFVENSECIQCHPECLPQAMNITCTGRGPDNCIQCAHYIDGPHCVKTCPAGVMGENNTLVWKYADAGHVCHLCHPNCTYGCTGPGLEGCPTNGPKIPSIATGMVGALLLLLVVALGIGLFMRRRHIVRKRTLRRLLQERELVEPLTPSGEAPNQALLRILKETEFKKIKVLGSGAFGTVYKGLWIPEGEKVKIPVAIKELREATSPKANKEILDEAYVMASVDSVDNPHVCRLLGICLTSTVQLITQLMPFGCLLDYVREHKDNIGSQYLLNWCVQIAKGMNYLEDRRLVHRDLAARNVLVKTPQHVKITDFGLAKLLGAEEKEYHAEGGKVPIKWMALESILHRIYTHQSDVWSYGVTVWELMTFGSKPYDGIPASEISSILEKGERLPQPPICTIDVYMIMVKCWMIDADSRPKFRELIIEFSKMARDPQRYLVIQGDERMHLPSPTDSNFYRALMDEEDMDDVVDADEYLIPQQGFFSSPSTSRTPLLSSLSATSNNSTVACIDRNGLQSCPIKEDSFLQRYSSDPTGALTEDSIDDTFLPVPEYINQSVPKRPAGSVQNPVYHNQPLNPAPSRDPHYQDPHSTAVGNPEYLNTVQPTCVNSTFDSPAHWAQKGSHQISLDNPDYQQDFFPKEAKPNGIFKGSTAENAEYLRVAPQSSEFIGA
Sequence of HER2 (A775_G776insYVMA) expressing Ba/F3 stable cell line (P04626 with tags, fused parts or gaps DUP772-775): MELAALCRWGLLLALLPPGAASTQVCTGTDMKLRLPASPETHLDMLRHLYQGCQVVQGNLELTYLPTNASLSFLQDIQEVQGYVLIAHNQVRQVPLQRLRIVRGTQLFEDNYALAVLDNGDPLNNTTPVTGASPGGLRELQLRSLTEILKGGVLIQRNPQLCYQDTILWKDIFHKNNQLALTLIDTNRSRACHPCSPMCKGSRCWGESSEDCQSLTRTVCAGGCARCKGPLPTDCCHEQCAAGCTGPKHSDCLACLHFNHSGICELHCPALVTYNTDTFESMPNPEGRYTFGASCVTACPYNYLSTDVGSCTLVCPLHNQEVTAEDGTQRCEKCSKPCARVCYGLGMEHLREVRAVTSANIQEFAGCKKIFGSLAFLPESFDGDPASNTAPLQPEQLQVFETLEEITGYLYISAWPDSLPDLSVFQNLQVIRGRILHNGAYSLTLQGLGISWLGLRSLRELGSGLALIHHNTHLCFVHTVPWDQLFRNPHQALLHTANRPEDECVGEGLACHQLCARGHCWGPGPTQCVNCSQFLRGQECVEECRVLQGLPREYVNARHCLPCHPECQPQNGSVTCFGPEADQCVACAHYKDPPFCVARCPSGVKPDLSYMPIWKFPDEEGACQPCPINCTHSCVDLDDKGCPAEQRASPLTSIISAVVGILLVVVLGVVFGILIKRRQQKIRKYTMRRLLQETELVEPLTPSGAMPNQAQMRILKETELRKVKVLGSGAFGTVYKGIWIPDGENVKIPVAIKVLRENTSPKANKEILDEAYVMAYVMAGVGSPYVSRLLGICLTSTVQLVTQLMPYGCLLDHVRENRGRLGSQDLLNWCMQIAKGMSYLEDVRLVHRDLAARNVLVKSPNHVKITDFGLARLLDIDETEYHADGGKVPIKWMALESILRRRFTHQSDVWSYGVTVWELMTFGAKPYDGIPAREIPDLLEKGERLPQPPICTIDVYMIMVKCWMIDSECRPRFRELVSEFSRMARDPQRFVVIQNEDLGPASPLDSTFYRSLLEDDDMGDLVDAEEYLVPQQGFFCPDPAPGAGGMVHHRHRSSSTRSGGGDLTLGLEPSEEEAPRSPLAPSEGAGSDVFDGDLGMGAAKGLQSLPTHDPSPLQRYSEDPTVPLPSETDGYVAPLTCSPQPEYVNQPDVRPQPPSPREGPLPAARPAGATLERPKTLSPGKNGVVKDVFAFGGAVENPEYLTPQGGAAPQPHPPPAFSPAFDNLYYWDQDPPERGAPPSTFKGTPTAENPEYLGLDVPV

On to `C=CC(=O)Nc1ccc(F)c(Nc2nc(Nc3cnn(C)c3)ncc2-c2ccccc2N(C)C)c1` [Compound 267, N-(3-((5-(2-(dimethylamino)phenyl)-2-((1-methyl-1H-pyrazol-4-yl)amino)pyrimidin-4-yl)amino)-4-fluorophenyl)acrylamide], for which the IC50 in assay [1] (setting [5]) was 5800 nM. Further, in assay [2], the GI50 was more than 10000 nM.

Take `C=CC(=O)Nc1ccc(F)c(Nc2nc(Nc3cnn(C)c3)ncc2C2=CCOC2)c1` [Compound 261, N-(3-{[5-(2,5-dihydrofuran-3-yl)-2-[(1-methyl-1H-pyrazol-4-yl)amino]pyrimidin-4-yl]amino}-4-fluorophenyl) prop-2-enamide]: the IC50 in assay [1] (setting [5]) came out at 195 nM. Also, in assay [2], the GI50 is 222 nM.

On to `C=CC(=O)Nc1ccc(Cl)c(Nc2nc(Nc3cnn(C)c3)ncc2-c2ccc(Br)cc2)c1` [Compound 292, N-(3-((5-(4-bromophenyl)-2-((1-methyl-1H-pyrazol-4-yl)amino)pyrimidin-4-yl)amino)-4-chlorophenyl)acrylamide], for which the half-maximal inhibitory concentration (IC50) in assay [1] (setting [5]) came to 1020 nM. Also, the GI50 in assay [2] was determined as 8830 nM.

`C=CC(=O)Nc1cc(Nc2nc(Nc3cnn(C)c3)ncc2Cl)cc2ccccc12` [Compound 297, N-(3-((5-chloro-2-((1-methyl-1H-pyrazol-4-yl)amino)pyrimidin-4-yl)amino)naphthalen-1-yl)acrylamide]: in assay [1] (setting [5]), the 50% inhibitory concentration (IC50) was 7790 nM. In assay [2], the GI50 is more than 10000 nM.

For the molecule `C=CC(=O)Nc1cc(Nc2nc(Nc3cnn(C)c3)ncc2Cl)cc(C(F)(F)F)c1` [Compound 291, N-(3-((5-chloro-2-((1-methyl-1H-pyrazol-4-yl)amino)pyrimidin-4-yl)amino)-5-(trifluoromethyl)phenyl)acrylamide], the 50% inhibitory concentration (IC50) in assay [1] (setting [5]) was more than 10000 nM. Further, in assay [2], the GI50 was 1840 nM.

On to `C=CC(=O)Nc1ccc(F)c(Nc2nc(Nc3cnn(C)c3)ncc2-c2ccccc2Cl)c1` [Compound 150, N-(3-((5-(2-chlorophenyl)-2-((1-methyl-1H-pyrazol-4-yl)amino)pyrimidin-4-yl)amino)-4-fluorophenyl)acrylamide 2,2,2-trifluoroacetate], for which, in assay [2], the GI50 amounted to 1810 nM.

Consider `C=CC(=O)Nc1ccc(F)c(Nc2nc(Nc3ccsc3)ncc2-c2ccc(C(F)(F)F)cc2)c1` [Compound 46, N-(4-fluoro-3-((2-(thiophen-3-ylamino)-5-(4-(trifluoromethyl)phenyl)pyrimidin-4-yl)amino)phenyl)acrylamide trifluoroacetate], for which, in assay [1] (setting [6]), the half-maximal inhibitory concentration (IC50) is 523 nM. Besides, the GI50 in assay [3] was found to be 2740 nM; in assay [4], 973 nM.

With `CN(C)C/C=C/C(=O)Nc1cccc(F)c1CNc1nc(Nc2cnn(C)c2)ncc1Cl` [Compound 174, (E)-N-(2-(((5-chloro-2-((1-methyl-1H-pyrazol-4-yl)amino)pyrimidin-4-yl)amino)methyl)-3-fluorophenyl)-4-(dimethylamino)but-2-enamide], the IC50 in assay [1] (setting [6]) is more than 10000 nM. Also, the GI50 in assay [3] and in assay [4] was more than 10000 nM throughout.

For `C=CC(=O)Nc1cccc(Nc2nc(Nc3cnn(C)c3)ncc2-c2ccc(C(F)(F)F)cc2)n1` [Compound 197, N-(6-((2-((1-methyl-1H-pyrazol-4-yl)amino)-5-(4-(trifluoromethyl)phenyl)pyrimidin-4-yl)amino)pyridin-2-yl)acrylamide], the IC50 in assay [1] (setting [6]) amounted to 373 nM. The figures for the GI50 in assay [3] and in assay [4] were 448 nM and 395 nM, respectively.

As for `C=CC(=O)Nc1ccc(F)c(Nc2nc(Nc3cnn(C)c3)ncc2C2=CCN(C)C2)c1` [Compound 226, N-[4-fluoro-3-({2-[(1-methyl-1H-pyrazol-4-yl)amino]-5-(1-methyl-2,5-dihydro-1H-pyrrol-3-yl)pyrimidin-4-yl}amino)phenyl]prop-2-enamide], the IC50 in assay [1] (setting [5]) was 1780 nM. The GI50 in assay [3] was determined as 1610 nM; in assay [4] it was 793 nM.

On to `C=CC(=O)Nc1cccc(Oc2nc(Nc3cnn(C)c3)ncc2C2=CCOCC2)c1` [Compound 192, N-(3-((5-(3,6-dihydro-2H-pyran-4-yl)-2-((1-methyl-1H-pyrazol-4-yl)amino)pyrimidin-4-yl)oxy)phenyl)acrylamide], for which the IC50 in assay [1] (setting [6]) was 258 nM. The GI50 came to 241 nM in assay [3] and 267 nM in assay [4].

For `C=CC(=O)Nc1ccc(F)c(Nc2nc(Nc3cnn(C)c3)ncc2-c2cccc(CN(C)C)c2)c1` [Compound 134, N-(3-((5-(3-((dimethylamino)methyl)phenyl)-2-((1-methyl-1H-pyrazol-4-yl)amino)pyrimidin-4-yl)amino)-4-fluorophenyl)acrylamide], the IC50 in assay [1] (setting [6]) came to 3280 nM. In addition, the GI50 in assay [3] was 8410 nM; in assay [4], more than 10000 nM.

Regarding `C=CC(=O)Nc1cccc(Oc2nc(Nc3cnn(C)c3)ncc2-c2cncc(C)c2)c1` [Compound 183, N-[3-({2-[(1-methyl-1H-pyrazol-4-yl)amino]-5-(5-methylpyridin-3-yl)pyrimidin-4-yl}oxy)phenyl]prop-2-enamide], the half-inhibitory concentration (IC50) in assay [1] (setting [6]) came to 292 nM. Also, the GI50 in assay [3] was 286 nM; in assay [4], 320 nM.

For `CN(C)C/C=C/C(=O)Nc1ccc(F)c(Nc2nc(Nc3cnn(C)c3)ncc2-c2ccc(Br)cc2)c1` [Compound 304, (E)-N-(3-((5-(4-bromophenyl)-2-((1-methyl-1H-pyrazol-4-yl)amino)pyrimidin-4-yl)amino)-4-fluorophenyl)-4-(dimethylamino)but-2-enamide], the half-maximal inhibitory concentration (IC50) in assay [1] (setting [5]) amounted to 790 nM. Moreover, the GI50 is 969 nM in assay [3] and 1520 nM in assay [4].

In the case of `CN(C)C/C=C/C(=O)Nc1ccc(F)c(Nc2nc(Nc3cnn(C)c3)ncc2Cl)c1` [Compound 4, (E)-N-(3-((5-chloro-2-((1-methyl-1H-pyrazol-4-yl)amino)pyrimidin-4-yl)amino)-4-fluorophenyl)-4-(dimethylamino)but-2-enamide], the IC50 in assay [1] (setting [6]) worked out at 6590 nM. In addition, the results for the GI50 in assay [3] and in assay [4] were 1760 nM and 3000 nM, respectively.

For `C=CC(=O)Nc1ccc(F)c(Nc2nc(Nc3cnn(C)c3)ncc2-c2cccc3ncccc23)c1` [Compound 262, N-(4-fluoro-3-((2-((1-methyl-1H-pyrazol-4-yl)amino)-5-(quinolin-5-yl)pyrimidin-4-yl)amino)phenyl)acrylamide], the GI50 in assay [2] was 4430 nM.

Take `C=CC(=O)Nc1cccc(-n2c3cc(C(F)(F)F)ccc3c3cnc(Nc4cnn(C)c4)nc32)c1` [Compound 209]: the IC50 in assay [1] (setting [5]) was 5410 nM. The GI50 in assay [3] stood at 9860 nM; in assay [4], 7970 nM.

`C=CC(=O)Nc1ccc(F)c(Nc2nc(Nc3csc(C)c3)ncc2-c2ccc(C(F)(F)F)cc2)c1` [Compound 217, N-(4-fluoro-3-((2-((5-methylthiophen-3-yl)amino)-5-(4-(trifluoromethyl)phenyl)pyrimidin-4-yl)amino)phenyl)acrylamide]: in assay [1] (setting [5]), the IC50 is more than 10000 nM. For the same molecule, the results for the GI50 in assay [3] and in assay [4] were 1130 nM and 916 nM, respectively.

`C=CC(=O)Nc1ccc(F)c(Nc2nc(Nc3cn(C)cn3)ncc2-c2ccc(C(F)(F)F)cc2)c1` [Compound 214, N-(4-fluoro-3-((2-((1-methyl-1H-imidazol-4-yl)amino)-5-(4-(trifluoromethyl)phenyl)pyrimidin-4-yl)amino)phenyl)acrylamide]: in assay [1] (setting [5]), the IC50 was more than 10000 nM. The GI50 in assay [3] came out at 543 nM; in assay [4], 308 nM.

With `C=CC(=O)Nc1ccc(F)c(Nc2nc(Nc3cnn(C)c3)ncc2C2CCOCC2)c1` [Compound 255, N-(4-fluoro-3-((2-((1-methyl-1H-pyrazol-4-yl)amino)-5-(tetrahydro-2H-pyran-4-yl)pyrimidin-4-yl)amino)phenyl)acrylamide], in assay [2], the GI50 was more than 10000 nM.

For the molecule `C=CC(=O)Nc1ccc(F)c(Nc2nc(Nc3cnn(C)c3)ncc2-c2cccc(OC(F)F)c2)c1` [Compound 143, N-(3-((5-(3-(difluoromethoxy)phenyl)-2-((1-methyl-1H-pyrazol-4-yl)amino)pyrimidin-4-yl)amino)-4-fluorophenyl)acrylamide trifluoroacetate], the IC50 in assay [1] (setting [6]) worked out at 235 nM. Also, the GI50 in assay [3] turned out to be 300 nM; in assay [4], 276 nM.

On to `C=CC(=O)Nc1cccc(Oc2nc(Nc3ccccc3Cl)ncc2-c2ccc(C(F)(F)F)cc2)c1` [Compound 189, N-(3-((2-((2-chlorophenyl)amino)-5-(4-(trifluoromethyl)phenyl)pyrimidin-4-yl)oxy)phenyl)acrylamide], for which the 50% inhibitory concentration (IC50) in assay [1] (setting [6]) amounted to 8130 nM. The GI50 in assay [3] and in assay [4] was more than 10000 nM in each case.
